Values quoted from earlier work, collected in patent US4717569A, “Unit dosage form of sparingly soluble medicaments” (Sterling Drug Inc., priority 1984, dated 1988).

How the values were obtained:
[1] = pH 6.0-7.0, intestinal juices
[2] = test system: pituitary gonadotrophins; conditions: in patients, background
[3] = in patients, background

Row | Structure (SMILES) | solubility at intestinal pH [1] | effect on pituitary gonadotrophins [2] | oestrogenic or progestational activity [3]
1 | OCCN(CCO)c1nc(N2CCCCC2)c2nc(N(CCO)CCO)nc(N3CCCCC3)c2n1 [dipyridamole] | insoluble | – | –
2 | C#C[C@]1(O)CC[C@H]2[C@@H]3CCC4=Cc5oncc5C[C@]4(C)[C@H]3CC[C@@]21C [Compound A, 17α-pregna-2,4-diene-20-yno[2,3-d]isoxazol-17-ol] | – | inhibits the synthesis or release of pituitary gonadotrophins | without exhibiting oestrogenic or progestational activity
